# Measurements taken from US7456199B2, “Biphenyl compounds useful as muscarinic receptor antagonists” (Theravance, Inc., priority 2004, dated 2008).
# System: MCh depressor responses
# Experiment: Methacholine-induced depressor responses in conscious guinea pigs
# Assay type: in vivo, guinea pig
# Conditions: inhalation
# Description: Healthy, adult, male Sprague-Dawley guinea pigs (Harlan, Indianapolis, Ind.), weighing between 200 and 300 g were used in these studies. Under isoflurane anesthesia (to effect), animals were instrumented with common carotid artery and jugular vein catheters (PE-50 tubing). The catheters were exteriorized utilizing a subcutaneous tunnel to the subscapular area. All surgical incisions were sutured with 4-0 Ethicon Silk and the catheters locked with heparin (1000 units/mL). Each animal was administered saline (3 mL, SC) at the end of surgery as well as buprenorphine (0.05 mg/kg, IM). Animals were allowed to recover on a heating pad before being returned to their holding rooms.
# Approximately 18 to 20 hours following surgery, the animals were weighed and the carotid artery catheter on each animal was connected to a transducer for recording arterial pressure. Arterial pressure and heart rate was recorded using a Biopac MP-100 Acquisition System. Animals were allowed to acclimate and stabilize for a period of 20 minutes.
# Each animal was challenged with MCh (0.3 mg/kg, IV) administered through the jugular venous line and the cardiovascular response was monitored for 10 minutes. […] At 1.5 and 24 h post-dosing, the animals were re-challenged with MCh (0.3 mg/kg, IV) and the hemodynamic response was determined. […]
smiles,measurement,value
"O=C(CCN1CCC(OC(=O)Nc2ccccc2-c2ccccc2)CC1)Nc1ccc(CNCc2ccc(O)cc2)cc1 [Example 1, Biphenyl-2-ylcarbamic Acid 1-(2-{4-[(4-Hydroxybenzylamino)methyl]phenylcarbamoyl}ethyl)piperidin-4-yl Ester]",apparent lung-selectivity index (ratio of anti-depressor ID50 to bronchoprotective ID50),greater than 5
